Patent US9771359B1, “Substituted oxazole- and thiazole-based carboxamide and urea derivatives as vanilloid receptor ligands II” (MEDIFRON DBT INC., priority 2014, dated 2017)

molecular target: vanilloid receptor 1 (VR1/TRPV1) (Homo sapiens (Human), UniProt Q8NER1); assay: FLIPR assay, Ca2+ influx in CHO K1 cells transfected with the human VR1 gene; format: cell-based; details: compound 5 μM, % activation compared with control capsaicin 10 μM
Protocol: Furthermore, preference may be given to compounds according to the first aspect of the invention that cause a 50% displacement of capsaicin, which is present at a concentration of 100 nM, in a FLIPR assay with CHO K1 cells which were transfected with the human VR1 gene at a concentration of less than 2 000 nM, preferably less than 1 000 nM, particularly preferably less than 300 nM, most particularly preferably less than 100 nM, even more preferably less than 75 nM, additionally preferably less than 50 nM, most preferably less than 10 nM. In the process, the Ca^2+ influx is quantified in the FLIPR assay with the aid of a Ca^2+-sensitive dye (type Fluo-4, Molecular Probes Europe BV, Leiden, the Netherlands) in a fluorescent imaging plate reader (FLIPR, Molecular Devices, Sunnyvale, USA), as described hereinafter.
The FLIPR protocol consists of 2 substance additions during a kinetic measurement. First the compounds to be tested (5 μM) are pipetted onto the cells and the Ca^2+ influx is determined in comparison to the control (capsaicin 10 μM), providing the result as % activation and representing the compound-alone effect (calculation at peak signal related to baseline). […] After 5 min incubation, the Ca^2+ influx is related to an injection of 100 nM of capsaicin and thereby the antagonistic effect of the test compounds detected.
Desensitising agonists and antagonists lead to suppression of the Ca^2+ influx. The % inhibition is calculated compared to the maximum achievable inhibition with 10 μM of capsaicin. Triple analyses (n=3) are carried out and repeated in at least 3 independent experiments.
Starting from the percentage displacement caused by different concentrations of the compounds to be tested of general formula I, IC50 inhibitory concentrations which cause a 50-% displacement of capsaicin were calculated. Ki values for the test substances were obtained by conversion by means of the Cheng-Prusoff equation (Cheng, Prusoff; Biochem. Pharmacol. 22, 3099-3108, 1973).
Chinese hamster ovary cells (CHO K1 cells, European Collection of Cell Cultures (ECACC) United Kingdom) are stably transfected with the VR1 gene. For functional testing, these cells are plated out on poly-D-lysine-coated black 96-well plates having a clear base (BD Biosciences, Heidelberg, Germany) at a density of 25,000 cells/well. The cells are incubated overnight at 37° C. and 5% CO2 in a culture medium (Ham's F12 nutrient mixture, 10% by volume of FCS (foetal calf serum), 18 μg/ml of L-proline). The next day the cells are incubated with Fluo-4 (Fluo-4 2 μM, 0.01% by volume of Pluronic F127, Molecular Probes in HBSS (Hank's buffered saline solution), Gibco Invitrogen GmbH, Karlsruhe, Germany) for 30 min at 37° C. Subsequently, the plates are washed three times with HBSS buffer and after further incubation for 15 min at RT used for Ca^2+ measurement in a FLIPR assay. The Ca^2+-dependent fluorescence is measured before and after the addition of the substances to be tested (λex wavelength=488 nm, λem=540 nm). Quantification is carried out by measuring the highest fluorescence intensity (FC, fluorescence counts) over time.

Chain of vanilloid receptor 1 (VR1/TRPV1) (Q8NER1 whole entry): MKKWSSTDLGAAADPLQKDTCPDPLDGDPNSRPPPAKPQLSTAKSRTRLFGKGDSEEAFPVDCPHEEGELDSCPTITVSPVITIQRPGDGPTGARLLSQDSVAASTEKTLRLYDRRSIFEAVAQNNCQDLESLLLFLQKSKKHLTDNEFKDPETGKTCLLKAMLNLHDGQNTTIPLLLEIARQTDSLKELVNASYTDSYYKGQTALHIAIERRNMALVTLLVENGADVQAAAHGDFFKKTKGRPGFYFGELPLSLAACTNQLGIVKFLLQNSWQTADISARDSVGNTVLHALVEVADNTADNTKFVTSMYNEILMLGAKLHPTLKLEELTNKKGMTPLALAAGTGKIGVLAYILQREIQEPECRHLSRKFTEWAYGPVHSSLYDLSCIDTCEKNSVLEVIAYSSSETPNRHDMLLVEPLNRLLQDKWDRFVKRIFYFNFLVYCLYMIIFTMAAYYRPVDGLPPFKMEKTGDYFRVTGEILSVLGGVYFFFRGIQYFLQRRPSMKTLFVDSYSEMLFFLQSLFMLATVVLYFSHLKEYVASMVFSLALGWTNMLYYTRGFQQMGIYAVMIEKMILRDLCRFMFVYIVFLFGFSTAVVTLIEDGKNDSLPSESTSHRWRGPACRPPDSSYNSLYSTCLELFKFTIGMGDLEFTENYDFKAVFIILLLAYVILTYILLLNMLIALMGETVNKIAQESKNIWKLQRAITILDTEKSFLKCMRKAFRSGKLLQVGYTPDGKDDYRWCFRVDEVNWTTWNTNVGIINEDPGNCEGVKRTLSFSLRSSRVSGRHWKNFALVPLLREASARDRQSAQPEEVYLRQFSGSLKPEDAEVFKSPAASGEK

Row | Compound | compound-alone effect on Ca2+ influx (agonist / partial agonist)
1 | Cc1cccc(-c2nc(C(C)(C)C)sc2CNC(=O)C(C)c2ccc(CNS(C)(=O)=O)c(F)c2)c1 (stereo not shown) [EX-04, N-((2-(tert-butyl)-4-(m-tolyl)thiazol-5-yl)methyl)-2-(3-fluoro-4-(methylsulfonamidomethyl)phenyl)propanamide] | pAG (A Ca^2+ influx of 10%-60% reveals a partial agonist (pAG))
2 | CC(C(=O)NCc1sc(C(C)(C)C)nc1-c1cccc(Cl)c1)c1ccc(CO)c(F)c1 (stereo not shown) [EX-07, N-((2-(tert-butyl)-4-(3-chlorophenyl)thiazol-5-yl)methyl)-2-(3-fluoro-4-(hydroxymethyl)phenyl)propanamide] | AG (a Ca^2+ influx of >60% relates to a pure agonist (AG))
3 | Cc1cccc(-c2nc(C(C)(C)C)sc2CNC(=O)C(C)c2ccc(CO)c(F)c2)c1 (stereo not shown) [EX-08, N-((2-(tert-butyl)-4-(m-tolyl)thiazol-5-yl)methyl)-2-(3-fluoro-4-(hydroxymethyl)phenyl)propanamide] | AG (a Ca^2+ influx of >60% relates to a pure agonist (AG))
4 | CC(C(=O)NCc1oc(C(F)(F)F)nc1-c1cccc(Cl)c1)c1ccc(C2(O)COC2)cc1 (stereo not shown) [EX-09, N-((4-(3-chlorophenyl)-2-(trifluoromethyl)oxazol-5-yl)methyl)-2-(4-(3-hydroxyoxetan-3-yl)phenyl)propanamide] | pAG (A Ca^2+ influx of 10%-60% reveals a partial agonist (pAG))
5 | CC(C(=O)NCc1sc(C(F)(F)F)nc1-c1cccc(Cl)c1)c1ccc(C2(O)COC2)cc1 (stereo not shown) [EX-10, N-((4-(3-chlorophenyl)-2-(trifluoromethyl)thiazol-5-yl)methyl)-2-(4-(3-hydroxyoxetan-3-yl)phenyl)propanamide] | pAG (A Ca^2+ influx of 10%-60% reveals a partial agonist (pAG))

same assay, conditions: displacement of capsaicin 100 nM; Ki from IC50 by Cheng-Prusoff equation; read-out: (f) Ki (human) [nM] Cap

Row | Ki [nM] | Compound
6 | 0.4 | CC(C(=O)NCc1sc(C(F)(F)F)nc1-c1cccc(Cl)c1)c1ccc(NCCO)nc1 (single isomer, unassigned) [EX-15, N-((4-(3-chlorophenyl)-2-(trifluoromethyl)thiazol-5-yl)methyl)-2-(6-((2-hydroxyethyl)amino)pyridin-3-yl)propanamide]
7 | 41.9 | CC(C(=O)NCc1sc(C(F)(F)F)nc1-c1cccc(Cl)c1)c1ccc(NCCO)nc1 (single isomer, unassigned) [EX-16, N-((4-(3-chlorophenyl)-2-(trifluoromethyl)thiazol-5-yl)methyl)-2-(6-((2-hydroxyethyl)amino)pyridin-3-yl)propanamide]
8 | 0.7 | CC(C(=O)NCc1oc(C(F)(F)F)nc1-c1cccc(Cl)c1)c1ccc(NCCO)nc1 (single isomer, unassigned) [EX-17, N-((4-(3-chlorophenyl)-2-(trifluoromethyl)oxazol-5-yl)methyl)-2-(6-((2-hydroxyethyl)amino)pyridin-3-yl)propanamide]
9 | 96.7 | CC(C(=O)NCc1oc(C(F)(F)F)nc1-c1cccc(Cl)c1)c1ccc(NCCO)nc1 (single isomer, unassigned) [EX-18, N-((4-(3-chlorophenyl)-2-(trifluoromethyl)oxazol-5-yl)methyl)-2-(6-((2-hydroxyethyl)amino)pyridin-3-yl)propanamide]
10 | 1.4 | CC(C(=O)NCc1sc(C(F)(F)F)nc1-c1cccc(Cl)c1)c1ccc(CCO)c(F)c1 (stereo not shown) [EX-01, N-((4-(3-chlorophenyl)-2-(trifluoromethyl)thiazol-5-yl)methyl)-2-(3-fluoro-4-(2-hydroxyethyl)phenyl)-propanamide]
11 | 28.4 | CC(C(=O)NCc1oc(C(F)(F)F)nc1-c1cccc(Cl)c1)c1ccc(CCO)c(F)c1 (stereo not shown) [EX-02, N-((4-(3-chlorophenyl)-2-(trifluoromethyl)oxazol-5-yl)methyl)-2-(3-fluoro-4-(2-hydroxyethyl)-phenyl)propanamide]
12 | 0.6 | CC(C(=O)NCc1sc(C(C)(C)C)nc1-c1cccc(Cl)c1)c1ccc(CNS(C)(=O)=O)c(F)c1 (stereo not shown) [EX-03, N-((2-(tert-butyl)-4-(3-chlorophenyl)thiazol-5-yl)methyl)-2-(3-fluoro-4-(methylsulfonamido-methyl)phenyl)propanamide]
13 | 1 | Cc1cccc(-c2nc(C(C)(C)C)sc2CNC(=O)C(C)c2ccc(CNS(C)(=O)=O)c(F)c2)c1 (stereo not shown) [EX-04, N-((2-(tert-butyl)-4-(m-tolyl)thiazol-5-yl)methyl)-2-(3-fluoro-4-(methylsulfonamidomethyl)phenyl)propanamide]
14 | 7.5 | CC(C(=O)NCc1oc(C(F)(F)F)nc1-c1cccc(Cl)c1)c1ccc(CNS(N)(=O)=O)cc1 (stereo not shown) [EX-05, N-((4-(3-chlorophenyl)-2-(trifluoromethyl)oxazol-5-yl)methyl)-2-(4-((sulfamoylamino)methyl)-phenyl)propanamide]
15 | 0.7 | CC(C(=O)NCc1sc(C(F)(F)F)nc1-c1cccc(Cl)c1)c1ccc(CNS(N)(=O)=O)cc1 (stereo not shown) [EX-06, N-((4-(3-chlorophenyl)-2-(trifluoromethyl)thiazol-5-yl)methyl)-2-(4-((sulfamoylamino)methyl)-phenyl)propanamide]
16 | 73.8 | CC(C(=O)NCc1oc(C(F)(F)F)nc1-c1cccc(Cl)c1)c1ccc(C2(O)COC2)cc1 (stereo not shown) [EX-09, N-((4-(3-chlorophenyl)-2-(trifluoromethyl)oxazol-5-yl)methyl)-2-(4-(3-hydroxyoxetan-3-yl)phenyl)propanamide]
17 | 8.8 | CC(C(=O)NCc1sc(C(F)(F)F)nc1-c1cccc(Cl)c1)c1ccc(C2(O)COC2)cc1 (stereo not shown) [EX-10, N-((4-(3-chlorophenyl)-2-(trifluoromethyl)thiazol-5-yl)methyl)-2-(4-(3-hydroxyoxetan-3-yl)phenyl)propanamide]
18 | 53.1 | CC(C(=O)NCc1oc(C(F)(F)F)nc1-c1cccc(Cl)c1)c1cnc(CCS(C)(=O)=O)c(F)c1 (stereo not shown) [EX-11, N-((4-(3-chlorophenyl)-2-(trifluoromethyl)oxazol-5-yl)methyl)-2-(5-fluoro-6-(2-(methylsulfonyl)ethyl)pyridin-3-yl)propanamide]
19 | 1.1 | CC(C(=O)NCc1sc(C(F)(F)F)nc1-c1cccc(Cl)c1)c1cnc(CCS(C)(=O)=O)c(F)c1 (stereo not shown) [EX-12, N-((4-(3-chlorophenyl)-2-(trifluoromethyl)thiazol-5-yl)methyl)-2-(5-fluoro-6-(2-(methylsulfonyl)ethyl)pyridin-3-yl)propanamide]
20 | 5.2 | CC(C(=O)NCc1oc(C(F)(F)F)nc1-c1cccc(Cl)c1)c1ccc(NCCO)nc1 (stereo not shown) [EX-13, N-((4-(3-chlorophenyl)-2-(trifluoromethyl)oxazol-5-yl)methyl)-2-(6-((2-hydroxyethyl)amino)pyridin-3-yl)propanamide]
21 | 0.7 | CC(C(=O)NCc1sc(C(F)(F)F)nc1-c1cccc(Cl)c1)c1ccc(NCCO)nc1 (stereo not shown) [EX-14, N-((4-(3-chlorophenyl)-2-(trifluoromethyl)thiazol-5-yl)methyl)-2-(6-((2-hydroxyethyl)amino)pyridin-3-yl)propanamide]
22 | 13.8 | CC(C(=O)NCc1oc(C(F)(F)F)nc1-c1cccc(Cl)c1)c1cnc(CO)c(F)c1 (stereo not shown) [EX-19, N-((4-(3-chlorophenyl)-2-(trifluoromethyl)oxazol-5-yl)methyl)-2-(5-fluoro-6-(hydroxymethyl)pyridin-3-yl)propanamide]
23 | 0.3 | CC(C(=O)NCc1sc(C(F)(F)F)nc1-c1cccc(Cl)c1)c1cnc(CO)c(F)c1 (stereo not shown) [EX-20, N-((4-(3-chlorophenyl)-2-(trifluoromethyl)thiazol-5-yl)methyl)-2-(5-fluoro-6-(hydroxymethyl)pyridin-3-yl)propanamide]

same assay, conditions: inhibition <10% @5 μM

Row | (f) Ki (human) Cap: no effect | Compound
24 | ne (ne=no effect (<10% @5 μM)) | CC(C(=O)NCc1oc(C(F)(F)F)nc1-c1cccc(Cl)c1)c1cnc(CO)c(F)c1 (stereo not shown) [EX-21, N-((4-(3-chlorophenyl)-2-(trifluoromethyl)oxazol-5-yl)methyl)-2-(5-fluoro-6-(hydroxymethyl)pyridin-3-yl)propanamide]
25 | ne (ne=no effect (<10% @5 μM)) | CC(C(=O)NCc1oc(C(F)(F)F)nc1-c1cccc(Cl)c1)c1cnc(CO)c(F)c1 (stereo not shown) [EX-22, N-((4-(3-chlorophenyl)-2-(trifluoromethyl)oxazol-5-yl)methyl)-2-(5-fluoro-6-(hydroxymethyl)pyridin-3-yl)propanamide]
